# Tested on: Aβ1-42 production
# Experiment: Cellular assay for inhibition of Aβ1-42 production (H4 APP751 SWE clone 8.20)
# Assay type: cell-based
# Details: 19 h, H4 APP751 SWE clone 8.20 cells, 19 h incubation; read-out: Activity Rating (Aβ42 cellular IC50, given as a number)
# Experimental: Cellular assays for inhibition of Aβ1-40 and Aβ1-42 production
# H4 cells stably transfected with APP751 containing the Swedish mutation (H4 APP751 SWE clone 8.20, developed at BMS) were maintained in log phase through twice weekly passage at a 1:20 split. For IC50 determinations, 30 μl cells (1.5×10^4 cells/well) in DMEM media containing 0.0125% BSA (Sigma A8412) were plated directly into 384-well compound plates (Costar 3709) containing 0.1 μl serially diluted compound in DMSO. Following incubation for 19 h in 5% CO2 at 37° C., plates were briefly centrifuged (1000 rpm, 5 min). A 10 μl aliquot from each well was transferred to a second assay plate (Costar 3709) for Aβ40 measurements. Antibody cocktails were freshly prepared by dilution into 40 mM Tris-HCl (pH 7.4) with 0.2% BSA and added to assay plates. For Aβ42 measurements, antibodies specific for the Aβ42 neoepitope (565, developed at BMS; conjugated to the Wallac reagent (Perkin Elmer)) and the N-terminal sequence of Aβ peptide (26D6, developed at SIBIA; conjugated to APC (Perkin Elmer)) were mixed and 20 μl of the mixture was added to each well of the incubated cell plate yielding a final concentration of 0.8 ng/well 565 and 75 ng/well 26D6. For the Aβ40 measurements, antibodies specific for the Aβ40 neoepitope (TSD, developed at BMS; conjugated to the Wallac reagent (Perkin Elmer)) and 26D6 as described above were mixed and 20 μl of the mixture was added to the 10 μl aliquots which had been removed previously from the cell plate yielding a final concentration of 1.6 ng/well TSD and 17.5 ng/well 26D6. Assay plates containing antibodies were sealed with aluminum foil and incubated overnight at 4° C. Signal was determined using a Viewlux counter (Perkin Elmer) and IC50 values determined using curve fitting in CurveMaster (Excel Fit based).
row,SMILES,IC50 [nM]
1,"COc1cc(Nc2nc3n(n2)C[C@H](O)[C@H](O)CC3c2ccc(F)cc2)ccc1-n1cnc(Cl)c1 (relative stereo) [Example 63, rel-(6S,7R,9R)-2-(4-(4-chloro-1H-imidazol-1-yl)-3-methoxyphenylamino)-9-(4-fluorophenyl)-6,7,8,9-tetrahydro-5H-[1,2,4]triazolo azepine-6,7-diol 2,2,2-trifluoroacetate]",140
2,"Cc1ncnn1-c1ccc(Nc2nc3n(n2)CC[C@H](O)C[C@@H]3c2ccc(F)cc2)cc1F (relative stereo) [Example 156, rel-(7R,9R)-2-(3-fluoro-4-(5-methyl-1H-1,2,4-triazol-1-yl)phenylamino)-9-(4-fluorophenyl)-6,7,8,9-tetrahydro-5H-[1,2,4]triazolo[1,5-a]azepin-7-ol 2,2,2-trifluoroacetate]",122
3,"COc1cc(Nc2nc3n(n2)CC=CC[C@H]3c2ccc(F)cc2)ccc1-n1cnc(Cl)c1 (single isomer, unassigned) [Example 2]",9
4,"Cc1ncnn1-c1ccc(Nc2nc3n(n2)CCC[C@H]3c2ccc(F)cc2)cc1F (single isomer, unassigned) [Example 14]",53

# Same assay, conditions: 19 h, H4 APP751 SWE clone 8.20 cells, 19 h incubation; read-out: Activity Rating (based on Aβ42 cellular IC50 values)
row,SMILES,IC50 [nM]
1,"COc1cc(Nc2nc3n(n2)C[C@H](O)CC[C@H]3c2ccc(F)cc2)ccc1-n1cnc(Cl)c1 (relative stereo) [Example 62, rel-(6R,9S)-2-(4-(4-chloro-1H-imidazol-1-yl)-3-methoxyphenylamino)-9-(4-fluorophenyl)-6,7,8,9-tetrahydro-5H-[1,2,4]triazolo[1,5-a]azepin-6-ol 2,2,2-trifluoroacetate]",< 10
2,"COc1cc(Nc2nc3n(n2)C[C@H](O)[C@H](O)C[C@H]3c2ccc(F)cc2)ccc1-n1cnc(Cl)c1 (relative stereo) [Example 64, rel-(6S,7R,9S)-2-(4-(4-chloro-1H-imidazol-1-yl)-3-methoxyphenylamino)-9-(4-fluorophenyl)-6,7,8,9-tetrahydro-5H-[1,2,4]triazolo[1,5-a]azepine-6,7-diol 2,2,2-trifluoroacetate]",10 to 100
3,"COc1cc(Nc2nc3n(n2)C[C@H](O)CC[C@@H]3c2ccc(F)cc2)ccc1-n1cnc(Cl)c1 (relative stereo) [Example 65, rel-(6R,9R)-2-(4-(4-chloro-1H-imidazol-1-yl)-3-methoxyphenylamino)-9-(4-fluorophenyl)-6,7,8,9-tetrahydro-5H-[1,2,4]triazolo[1,5-a]azepin-6-ol 2,2,2-trifluoroacetate]",< 10
4,"COc1cc(Nc2nc3n(n2)CC[C@@H](O)C[C@@H]3c2ccc(F)cc2)ccc1-n1cnc(Cl)c1 (relative stereo) [Example 66, rel-(7S,9R)-2-(4-(4-chloro-1H-imidazol-1-yl)-3-methoxyphenylamino)-9-(4-fluorophenyl)-6,7,8,9-tetrahydro-5H-[1,2,4]triazolo[1,5-a]azepin-7-ol 2,2,2-trifluoroacetate]",< 10
5,"COc1cc(Nc2nc3n(n2)C[C@H](F)[C@H](F)C[C@H]3c2ccc(F)cc2)ccc1-n1cnc(Cl)c1 (relative stereo) [Example 91, rel-(6S,7R,9S)—N-(4-(4-chloro-1H-imidazol-1-yl)-3-methoxyphenyl)-6,7-difluoro-9-(4-fluorophenyl)-6,7,8,9-tetrahydro-5H-[1,2,4]triazolo[1,5-a]azepin-2-amine 2,2,2-trifluoroacetate]",< 10
6,"COc1cc(Nc2nc3n(n2)CC[C@](C)(O)C[C@@H]3c2ccc(F)cc2)ccc1-n1cnc(Cl)c1 (relative stereo) [Example 147, rel-(7R,9R)-2-(4-(4-chloro-1H-imidazol-1-yl)-3-methoxyphenylamino)-9-(4-fluorophenyl)-7-methyl-6,7,8,9-tetrahydro-5H-[1,2,4]triazolo[1,5-a]azepin-7-ol 2,2,2-trifluoroacetate]",< 10
7,"Cc1ncnn1-c1ccc(Nc2nc3n(n2)CC[C@](C)(O)C[C@@H]3c2ccc(F)cc2)cc1F (relative stereo) [Example 150, rel-(7R,9R)-2-(3-fluoro-4-(5-methyl-1H-1,2,4-triazol-1-yl)phenylamino)-9-(4-fluorophenyl)-7-methyl-6,7,8,9-tetrahydro-5H-[1,2,4]triazolo[1,5-a]azepin-7-ol 2,2,2-trifluoroacetate]",10 to 100
8,"Cc1ncnn1-c1ccc(Nc2nc3n(n2)CC[C@@](C)(O)C[C@@H]3c2ccc(F)cc2)cc1F (relative stereo) [Example 151, rel-(7S,9R)-2-(3-fluoro-4-(5-methyl-1H-1,2,4-triazol-1-yl)phenylamino)-9-(4-fluorophenyl)-7-methyl-6,7,8,9-tetrahydro-5H-[1,2,4]triazolo[1,5-a]azepin-7-ol 2,2,2-trifluoroacetate]",10 to 100
9,"COc1cc(Nc2nc3n(n2)CC[C@](C)(O)C[C@@H]3c2ccc(OC(F)(F)F)cc2)ccc1-n1cnc(Cl)c1 (relative stereo) [Example 152, rel-(7R,9R)-2-(4-(4-chloro-1H-imidazol-1-yl)-3-methoxyphenylamino)-7-methyl-9-(4-(trifluoromethoxy)phenyl)-6,7,8,9-tetrahydro-5H-[1,2,4]triazolo[1,5-a]azepin-7-ol 2,2,2-trifluoroacetate]",< 10
10,"COc1cc(Nc2nc3n(n2)CC[C@@](C)(O)C[C@@H]3c2ccc(OC(F)(F)F)cc2)ccc1-n1cnc(Cl)c1 (relative stereo) [Example 153, rel-(7S,9R)-2-(4-(4-chloro-1H-imidazol-1-yl)-3-methoxyphenylamino)-7-methyl-9-(4-(trifluoromethoxy)phenyl)-6,7,8,9-tetrahydro-5H-[1,2,4]triazolo[1,5-a]azepin-7-ol 2,2,2-trifluoroacetate]",< 10
11,"Cc1ncn(-c2ccc(Nc3nc4n(n3)CC[C@](C)(O)C[C@@H]4c3ccc(F)cc3)cc2F)n1 (relative stereo) [Example 154, rel-(7R,9R)-2-(3-fluoro-4-(3-methyl-1H-1,2,4-triazol-1-yl)phenylamino)-9-(4-fluorophenyl)-7-methyl-6,7,8,9-tetrahydro-5H-[1,2,4]triazolo[1,5-a]azepin-7-ol 2,2,2-trifluoroacetate]",10 to 100
12,"Cc1ncn(-c2ccc(Nc3nc4n(n3)CC[C@@](C)(O)C[C@@H]4c3ccc(F)cc3)cc2F)n1 (relative stereo) [Example 155, rel-(7S,9R)-2-(3-fluoro-4-(3-methyl-1H-1,2,4-triazol-1-yl)phenylamino)-9-(4-fluorophenyl)-7-methyl-6,7,8,9-tetrahydro-5H-[1,2,4]triazolo[1,5-a]azepin-7-ol 2,2,2-trifluoroacetate]",10 to 100
13,"Cc1ncnn1-c1ccc(Nc2nc3n(n2)CC[C@@H](O)C[C@@H]3c2ccc(F)cc2)cc1F (relative stereo) [Example 157, rel-(7S,9R)-2-(3-fluoro-4-(5-methyl-1H-1,2,4-triazol-1-yl)phenylamino)-9-(4-fluorophenyl)-6,7,8,9-tetrahydro-5H-[1,2,4]triazolo[1,5-a]azepin-7-ol 2,2,2-trifluoroacetate]",10 to 100
14,"COc1cc(Nc2nc3n(n2)CC=CC[C@@H]3c2ccc(F)cc2)ccc1-n1cnc(Cl)c1 (single isomer, unassigned) [Example 3]",< 10
15,"COc1cc(Nc2nc3n(n2)CC=CC[C@H]3c2ccc(F)cc2)ccc1-n1cnc(C)n1 (single isomer, unassigned) [Example 5]",10 to 100
16,"COc1cc(Nc2nc3n(n2)CC=CC[C@@H]3c2ccc(F)cc2)ccc1-n1cnc(C)n1 (single isomer, unassigned) [Example 6]",10 to 100

# — patent US8349880B2, “Bicyclic compounds for the reduction of beta-amyloid production” (Bristol-Myers Squibb Company, priority 2009, dated 2013)
